Experimental data from US7485665B2, “Medicinal composition” (Nagase Chemtex Corporation, priority 2002, dated 2009).
Where a name gives a salt, the structure may show the parent alone.

Assays:
serotonin receptor 4 = molecular target: T1, serotonin receptor 4 (Cavia porcellus, UniProt O70528); test: Binding affinity for serotonin receptor 4 ([3H]-GR113808 displacement); design: species or system guinea pig; conditions: for IC50: guinea pig corpus striatum receptor sample, 0.1 nM [3H]-GR113808
T1 construct: centrifugation and suspension were repeated to prepare a serotonin receptor 4 sample; from tissue; host or cells: corpus striatum of Hartley male guinea pig (membrane homogenate)
T1 sequence (O70528 whole entry): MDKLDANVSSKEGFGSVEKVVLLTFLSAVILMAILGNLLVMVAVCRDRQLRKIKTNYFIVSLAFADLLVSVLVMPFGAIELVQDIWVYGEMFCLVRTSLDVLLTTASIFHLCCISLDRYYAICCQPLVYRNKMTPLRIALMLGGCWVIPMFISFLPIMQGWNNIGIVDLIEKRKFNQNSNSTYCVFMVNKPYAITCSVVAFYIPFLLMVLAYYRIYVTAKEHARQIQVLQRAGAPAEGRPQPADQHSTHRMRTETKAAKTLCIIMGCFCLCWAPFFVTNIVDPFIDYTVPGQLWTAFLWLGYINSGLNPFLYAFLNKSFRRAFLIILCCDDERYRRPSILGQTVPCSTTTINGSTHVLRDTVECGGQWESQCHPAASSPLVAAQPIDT
Method: Corpus striatum extracted from a Hartley male guinea pig was homogenized in a 50 mM HEPES-NaOH buffer (pH 7.4), and centrifugation and suspension were repeated to prepare a serotonin receptor 4 sample. The receptor sample was reacted with a solution containing a 0.1 nM radioactive ligand of [^3H]-GR113808 and the specimen drug obtained in Example 9 at a prescribed concentration. Then, the solution was filtered by suction using a multifilter MF-12G (glass filter (provided with Whatman GFIC)), and radioactivity of the filter was measured using a scintillation counter (LS6500 Beckman), so that affinity of the specimen drug for a serotonin receptor 4 was measured. Separately, the same procedure was also performed regarding TKS159 hydrochloride, and the affinity was compared.

dopamine D2 receptor = molecular target: T2, dopamine D2 receptor (Rattus norvegicus, UniProt P61169); test: Binding affinity for dopamine D2 receptor ([3H]-spiperone displacement); conditions: for IC50: Wistar rat corpus striatum receptor sample, 0.25 nM [3H]-spiperone
T2 construct: centrifugation and suspension were repeated to prepare a dopamine D2 receptor sample; from tissue; host or cells: corpus striatum of Wistar male rat (membrane homogenate)
T2 sequence (P61169 whole entry): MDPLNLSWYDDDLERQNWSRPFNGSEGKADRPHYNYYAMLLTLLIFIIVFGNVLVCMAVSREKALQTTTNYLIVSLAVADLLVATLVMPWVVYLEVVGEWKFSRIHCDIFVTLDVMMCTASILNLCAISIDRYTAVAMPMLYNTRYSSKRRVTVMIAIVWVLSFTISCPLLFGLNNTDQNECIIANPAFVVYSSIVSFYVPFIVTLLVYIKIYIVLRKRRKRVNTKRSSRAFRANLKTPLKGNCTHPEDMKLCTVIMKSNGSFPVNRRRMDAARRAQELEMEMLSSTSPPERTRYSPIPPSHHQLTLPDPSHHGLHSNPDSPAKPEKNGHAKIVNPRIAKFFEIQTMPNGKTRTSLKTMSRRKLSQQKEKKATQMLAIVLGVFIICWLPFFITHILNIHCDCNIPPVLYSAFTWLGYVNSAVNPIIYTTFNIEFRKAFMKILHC
Method: Corpus striatum extracted from a Wistar male rat was homogenized in a 50 mM Tris-HCl buffer (pH 7.7), and centrifugation and suspension were repeated to prepare a dopamine D2 receptor sample. The receptor sample was reacted with a solution containing a 0.25 nM radioactive ligand of [^3H]-spiperone and the specimen drug obtained in Example 9 at a prescribed concentration. Then, the solution was filtered by suction using a multifilter MF-12G (glass filter (provided with Whatman GF/C)), and radioactivity of the filter was measured using a scintillation counter (LS6500 Beckman), so that affinity of the specimen drug for a dopamine D2 receptor was measured. Separately, the same procedure was also performed regarding TKS159 hydrochloride, and the affinity was compared.

[1] = test system: esophagus sample extracted from a rat; test: Relaxation reaction in rat-extracted esophagus muscularis mucosae sample contracted with carbachol; conditions: for EC50: Wistar rat esophagus muscularis mucosae, 3x10^-6 M carbachol, 1 μM methysergide, ketanserin and granisetron present
Method: Regarding the drug obtained in Example 9, a degree of action of promoting the movement of the digestive tract was measured using an esophagus sample extracted from a rat.
An esophagus in a chest cavity was extracted from a Wistar male rat, and muscularis propria sample containing longitudinal muscle and circular muscle was removed to prepare a muscularis mucosae sample having a length of about 2 cm. The sample was immersed in a nutrient solution (containing NaCl 118.5, KCl 4.7, CaCl2 1.3, MgSO4 0.6, NaHCO3 25.0, KH2PO4 1.2, and glucose 11.1 (unit mM)), and constriction of the sample and stability of the constriction were confirmed at 32°C using 3x10 ^-6M carbachol while a 95% 02/5% Co2 mixed gas was flown, each 1 μM of methysergide, ketanserin and granisetron were added, the drug obtained in Example 9 was accumulatively applied at a common ratio of 3 after 30 minutes, and a degree of relaxation was isotonically (stationary tension; about 0.5 g) measured via a transducer. Separately, the same procedure was also performed regarding TKS159 hydrochloride, and an intensity of the action was compared.

beagle dogs [2] = test: 4-week repeated oral administration to beagle dogs, necropsy and pathohistological test; assay type: in vivo; conditions: beagle dog, oral 100 mg/kg once a day for 4 weeks
Method: Using three beagle dogs as a test animal, 4-amino-5-chloro-2-methoxy-N-[(2S,4S)-2-hydroxymethyl-4-pyrrolidinyl]benzamide monohydrochloride obtained in Example 9 was repeatedly administered orally at a dose of 100 mg/kg once a day for 4 weeks. Thereafter, the animals were sacrificed by exsanguination from carotid artery under anesthesia, and the brain, aorta, heart, lung, and liver were extracted. These organs were examined with naked eyes, fixed with a 0.1% phosphate-buffered 10% formalin solution, and stored. Each organ was embedded in paraffin, and sliced to prepare a hematoxine orange-stained sample. Pathohistological test on the sections was performed using a light microscope.

Sprague-Dawley male rats = test: 28-day repeated oral administration to rats, necropsy and pathohistological test; assay type: in vivo; conditions: rat, oral 300, 1000 or 2000 mg/kg once a day for 28 days
Method: Five Sprague-Dawley male rats, 4 week age, weighing each 160.3 to 169.5 g, were reared for 8 days for quarantine and training were handled as one group, and they were grouped into four groups of a control group, a 300 mg/kg administration, a 1000 mg/kg administration, and a 2000 mg/kg administration. 4-Amino-5-chloro-2-methoxy-N-[(2S,4S)-2-hydroxymethyl-4-pyrrolidinyl] benzamide monohydrochloride obtained in Example 9 was ground with a mortar, the powder was added so that the compound was contained at 300 mg, 1000 mg or 2000 mg in 10 ml of a 0.5% aqueous methylcellulose solution (manufactured by Wako Pure Chemical Industries, Ltd.; prepared using Japanese Pharmacopoeia injectable water), and the solution was stirred to prepare an administration specimen. Administration specimens for 7 days were prepared at one time, once per week, stored in a refrigerator, and used. One-time dose was defined to be 10 ml/kg, and the specimen was forcibly administered orally at 9 o'clock to 12 o'clock for 28 days once a day using a rat stomach tube. Only a 0.5% aqueous methylcellulose solution was administered at 10 ml/kg to a control group.
During training and drug administration period, a solid feed (CE-2 manufactured by CLEA Japan Inc.) and tap water were freely given.

ddy male mouse = test: Acute toxicity in mouse, oral and intravenous administration; assay type: in vivo
Method: Using a ddy male mouse, the drug obtained in Example 9 and TKS159 were suspended in 0.5% methylcellulose for oral administration, and were dissolved in a physiological saline for intravenous administration. This was administered by a forced oral administration method and an intravenous administration method using a probe, and acute toxicity was observed.

beagle dogs [3] = test: Repeated oral administration toxicity tests of TKS159 in beagle dogs (4, 13 and 52 weeks); assay type: in vivo
Method: Separately, beagle dogs (female and male) were divided into 4 groups consisting of 6, 4, 4 and 6 dogs and, among them, to 3 groups were repeatedly administered orally TKS 159 at a dose of 2.5, 6.0 and 15.0 mg/kg, and to a control group was repeatedly administered orally an excipient, for 13 weeks, and observation of the general status and various tests were performed. Further, regarding a control group and a case of a part of a 15.0 mg/kg administration group, after a repeated administration period for 13 weeks, a recovery test of no administration of a drug was performed for 4 weeks, and then the same test was performed. […] Separately, beagle dogs (female and male) were divided into 4 groups containing 5, 3, 3 and 5 dogs and, among them, to 3 groups was repeatedly administered orally TKS159 at a dose of 0.25, 0.75 and 2.25 mg/kg, to a control group was repeatedly administered an excipient orally, for 52 weeks, and observation of the general status and various tests were performed. Further, regarding a control group and a case of a part of a 2.25 mg/kg administration group, after a repeated administration period for 52 weeks, a recovery test of no administration of a drug was performed for 4 weeks, and then the same test was performed.

[4] = beagle dogs, 13 weeks, 15.0 mg/kg group
[5] = beagle dogs, 52 weeks, 2.25 mg/kg group
[6] = male beagle dogs, 4 weeks, 100 mg/kg group

SMILES | affinity for a serotonin receptor 4 as compared with TK5159 hydrochloride (serotonin receptor 4; FIG. 1) | IC50 (serotonin receptor 4) | affinity for a dopamine D2 receptor as compared with TKS159 hydrochloride (dopamine D2 receptor; FIG. 2) | IC50 (dopamine D2 receptor) | relaxing action as compared with TKS159 hydrochloride ([1]; FIG. 3) | EC50 [1] | pathohistological test (beagle dogs [2]) | organs examined with naked eyes (beagle dogs [2]; brain, aorta, heart, lung, liver) | organs observed with naked eyes (Sprague-Dawley male rats) | pathohistological test (Sprague-Dawley male rats) | Survival (ddy male mouse; intravenous administration, 132 mg/kg) | Survival (ddy male mouse; oral administration, 1080 mg/kg) | findings in other one case (beagle dogs [3]; [4]) | findings in two cases (beagle dogs [3]; [4]) | arteritis findings (beagle dogs [3]; [5]) | malacia findings (beagle dogs [3]; [5]) | findings in death case (beagle dogs [3]; [6]) | findings in survival case (beagle dogs [3]; [6])
COc1cc(N)c(Cl)cc1C(=O)N[C@@H]1CN[C@H](CO)C1.Cl [Example 9, 4-amino-5-chloro-2-methoxy-N-[(2S,4S)-2-hydroxymethyl-4-pyrrolidinyl]benzamide monohydrochloride] | stronger | 250 nM | weaker | 34000 nM | stronger | 700 nM | encephalomalacia, arteritis and thrombus formation were not recognized | Abnormality was not seen in any organ | Abnormality was not seen with naked eyes in any organ | encephalomalacia, arteritis and thrombus formation were not recognized | – | – | – | – | – | – | – | –
CCN1CC(NC(=O)c2cc(Cl)c(N)cc2OC)CC1CO (stereo not drawn) [TKS159 hydrochloride] | – | 450 nM | – | 3800 nM | – | 1100 nM | – | – | – | – | No survival among 6 | No survival among 2 | – | – | – | – | – | –
CCN1C[C@@H](NC(=O)c2cc(Cl)c(N)cc2OC)C[C@H]1CO [TKS159, 4-Amino-5-chloro-2-methoxy-N-[(2S,4S)-1-ethyl-2-hydroxymethyl-4-pyrrolidinyl]benzamide] | – | – | – | – | – | – | – | – | – | – | – | – | necrosis of an artery septum and surrounding cell infiltration were recognized | arteritis was recognized | arteritis was observed in thighbone marrow and mediastinal lymph node in one case among male 5 cases | malacia was seen in piriform lobe and hippocampus in other one case | thrombus formation was recognized in a lung artery and a heart coronary artery, and slight bleeding was recognized in a cavity surrounding a blood vessel in a cerebral parenchyma | big thrombus formation was recognized in a left ventricle, and thrombus formation was recognized in a kidney arcuate artery and an interlobar artery
